Reference: patent US8808706B2, “Arthrospira-based compositions and uses thereof” (Biovite Australia Pty. Ltd., priority 2004, dated 2014)

System: Trichophyton mentagrophytes
Experiment: Inhibitory test, filter paper disc on newly inoculated plate
Type: cell-based
Conditions: FIG. 20
Method: Sabouraud's liquid medium was inoculated with the chosen pathogen. The broths were then incubated for one week at 28° C. […] Monographed actives not already in a cream base were mixed with a respective cream base. […] Up to four different discs were placed on a plate. The plate was then incubated for 24-48 hours at the appropriate temperature depending on the pathogen. Photos were then taken at the completion of the 24-48 hours.

`Clc1ccc(COC(Cn2ccnc2)c2ccc(Cl)cc2Cl)c(Cl)c1` (stereo not shown) [miconazole] was tested. Which regrowth into clearance did it give?
The regrowth into clearance was “became encroached by regrowth”.
